US20050079526A1, “Methods and apparatuses for characterizing refolding and aggregation of biological molecules” (Affinium Pharmaceuticals, Inc., priority 2002, published 2005)

Legend:
[1] = tested on: refolded Gaf domain of PDE10; assay: thermal aggregation (light scattering) of refolded protein, temperature of aggregation (Tag) with ligands; type: binding; conditions: refolded Gaf domain of PDE10 in presence of ligand; light scattering versus temperature; FIG. 10
Experimental: The fluorescence emitted and the light scattered at 90° were measured from the top of the arrangement. The fluorescence emitted and the light scattered intensity data were collected at intervals of time of incubation for all the temperatures simultaneously.

the protein = assay: extent of unfolding of a protein measured by fluorescence versus time after temperature jump to 55° C. (rate of unfolding ku); type: binding; conditions: fluorescence versus time at 55° C.; 5% ethanol; 10% glycerol; AND^+; compared with control solution; FIG. 6
Experimental: Multiple identical protein solutions were arranged in two-dimensional arrays of reservoirs which were incubated at different temperatures. These samples were alternatively illuminated with UV light and monochromatic red light. The fluorescence emitted and the light scattered at 90° were measured from the top of the arrangement. The fluorescence emitted and the light scattered intensity data were collected at intervals of time of incubation for all the temperatures simultaneously. In another example, the protein was incubated in 5% ethanol; 10% glycerol, AND^+ or a control solution and the extent of unfolding was measured at 55° C. A plots of fluorescence at the given temperature versus time was automatically built for all the samples, and the rate of unfolding ku was obtained from the fitted exponential grow portion of the curves for the proteins jumped to 55° C.

| SMILES | change of temperature of aggregation (Tag) [1] | effect on the stability of the protein (unfolding, ku) (the protein) |
| --- | --- | --- |
| Nc1nc2c(ncn2[C@@H]2O[C@@H]3COP(=O)(O)O[C@H]3[C@H]2O)c(=O)[nH]1 [cGMP] | increased the Tag |  |
| OCC(O)CO [Glycerol, glycerol] |  | stabilizing effect |
| NC(=O)c1ccc[n+]([C@@H]2O[C@H](COP(=O)([O-])OP(=O)(O)OC[C@H]3O[C@@H](n4cnc5c(N)ncnc54)[C@H](O)[C@@H]3O)[C@@H](O)[C@H]2O)c1 [AND^+] |  | strongest stabilizing effect |
| CCO [ethanol] |  | destabilizing effect or no effect at all |
